Drawing on ChEMBL document CHEMBL2311283, “Structural modifications to tetrahydropyridine-3-carboxylate esters en route to the discovery of M5-preferring muscarinic receptor orthosteric antagonists” (J Med Chem, 2013), this text covers Ki and Ratio Ki for 43 compounds.

As a reminder, the Ki is a measure of affinity in units of concentration, obtained from inhibition or displacement.

Test [1] addresses T1, Muscarinic acetylcholine receptor M5 (Homo sapiens, UniProt P08912).
T1 sequence (P08912 whole entry): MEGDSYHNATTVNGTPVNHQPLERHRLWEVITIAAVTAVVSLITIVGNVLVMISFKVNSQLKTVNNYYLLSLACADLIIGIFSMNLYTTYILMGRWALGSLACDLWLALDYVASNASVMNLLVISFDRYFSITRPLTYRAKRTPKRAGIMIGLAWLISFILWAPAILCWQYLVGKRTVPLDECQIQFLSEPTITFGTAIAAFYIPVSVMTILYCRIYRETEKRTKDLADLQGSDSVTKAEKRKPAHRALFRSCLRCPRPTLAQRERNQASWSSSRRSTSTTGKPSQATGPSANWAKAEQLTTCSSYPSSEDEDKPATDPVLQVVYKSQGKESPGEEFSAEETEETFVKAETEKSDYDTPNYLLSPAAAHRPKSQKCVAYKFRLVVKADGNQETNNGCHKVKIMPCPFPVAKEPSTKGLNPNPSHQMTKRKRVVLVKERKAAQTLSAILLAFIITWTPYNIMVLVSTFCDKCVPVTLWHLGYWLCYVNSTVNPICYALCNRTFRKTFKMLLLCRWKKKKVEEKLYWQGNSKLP
Kind of test: Displacement of [3H]NMS from human M5 muscarinic receptor expressed in CHO-K1 cells. The format is cell-based. (In general: Loss of bound radioactivity is the signal in a displacement assay; it reports binding, not function.)

The target of test [2] is T2, Muscarinic acetylcholine receptor M1 (Homo sapiens, UniProt P11229).
T2 sequence (P11229 whole entry): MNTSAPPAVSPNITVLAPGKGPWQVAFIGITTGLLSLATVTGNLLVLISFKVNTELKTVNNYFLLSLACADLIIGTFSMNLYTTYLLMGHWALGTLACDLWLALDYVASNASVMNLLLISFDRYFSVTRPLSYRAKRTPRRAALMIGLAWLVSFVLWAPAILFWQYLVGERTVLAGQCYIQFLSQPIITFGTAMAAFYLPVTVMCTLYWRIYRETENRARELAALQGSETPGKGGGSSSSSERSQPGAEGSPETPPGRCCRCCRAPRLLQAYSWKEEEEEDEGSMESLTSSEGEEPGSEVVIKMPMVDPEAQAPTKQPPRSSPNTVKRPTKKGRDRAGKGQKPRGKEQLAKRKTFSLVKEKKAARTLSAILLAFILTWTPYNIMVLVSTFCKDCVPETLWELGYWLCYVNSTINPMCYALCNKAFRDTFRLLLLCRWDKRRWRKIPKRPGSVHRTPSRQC
Briefly: biochemical. The format is cell-based, CHO-K1.

For the next test, the species on record is Homo sapiens. Kind of test: Selectivity index, ratio of Ki for human M1 muscarinic receptor to Ki for human M5 muscarinic receptor.

Some results are limits rather than exact numbers.

In the case of `CN1CCC(C(=O)OCCc2ccc3c(c2)CCO3)=C(c2ccccc2)C1`, the inhibitory constant (Ki) in test [1] is 1.14 µM; in test [2], 0.21 µM.

As for `COC(COC(=O)C1=C(c2ccccc2)CCN(C)C1)c1ccccc1` (stereo not given), the Ki in test [1] and in test [2] was more than 100 µM in each case.

`CCN1CCC(c2ccccc2)=C(C(=O)OCCc2ccc(S(C)(=O)=O)cc2)C1`: the Ki in test [1] and in test [2] was more than 100 µM each time.

For the compound `CCOC(=O)C1=C(c2ccccc2)CCN(C2CCN(S(=O)(=O)c3ccc(C)cc3)CC2)C1`, the Ki in test [1] and in test [2] was more than 100 µM throughout.

On to `COc1ccc(CCOC(=O)C2=C(c3ccccc3F)CCN(C)C2)cc1OC`, for which the Ki in test [1] and in test [2] was more than 100 µM each time.

For the compound `CCN1CCC(c2ccccc2)=C(C(=O)OCCc2ccc([N+](=O)[O-])cc2)C1`, the Ratio Ki in the test filed under Homo sapiens turned out to be 1.8. The inhibitory constant (Ki) in test [1] came to 0.44 µM; in test [2] it was 0.81 µM.

Regarding `COc1ccc(CCOC(=O)C2=C(c3ccccc3)CCN(Cc3ccc(OC)cc3)C2)cc1`, the Ki in test [1] and in test [2] was more than 100 µM in each case.

In the case of `COc1ccc(CCOC(=O)C2=C(c3ccccc3)CCN(C)C2)cc1C`, the Ratio Ki in the test filed under Homo sapiens was 3.6. Besides, the Ki turned out to be 0.74 µM in test [1] and 2.7 µM in test [2].

Turning to `CCN1CCC(c2ccc(F)cc2)=C(C(=O)OCCc2ccc3c(c2)CCO3)C1`, in the test filed under Homo sapiens, the Ratio Ki was 3.4. Further, the Ki in test [1] was determined as 2.35 µM; in test [2], 7.9 µM.

Take `CCN1CCC(c2ccccc2)=C(C(=O)OCCc2cccc(OC)c2)C1`: the Ratio Ki in the test filed under Homo sapiens came out at 3.1. Also, the results for the inhibition constant (Ki) in test [1] and in test [2] were 0.15 µM and 0.47 µM, respectively.

Turning to `CCN1CCC(c2ccccc2)=C(C(=O)OCCc2ccsc2)C1`, the Ratio Ki in the test listed under Homo sapiens was 0.7. Moreover, the inhibition constant (Ki) amounted to 0.19 µM in test [1] and 0.14 µM in test [2].

Regarding `CCN1CCC(c2ccccc2)=C(C(=O)OCc2ccc(OC)cc2)C1`, the Ratio Ki in the test listed under Homo sapiens worked out at 0.8. Moreover, the inhibition constant Ki in test [1] was determined as 3.61 µM; in test [2], 3.06 µM.

`CCCN1CCC(c2ccccc2)=C(C(=O)OCCc2ccc3c(c2)CCO3)C1`: the Ki in test [1] and in test [2] was more than 100 µM in each case.

Consider `CCCN1CCC(c2ccccc2)=C(C(=O)OCCc2ccc(OC)cc2)C1`, for which the Ki in test [1] and in test [2] was more than 100 µM each time.

As for `COc1ccc(CCOC(=O)C2=C(c3ccccc3OC)CCN(C)C2)cc1OC`, the inhibitory constant (Ki) in test [1] and in test [2] was more than 100 µM each time.

In the case of `CN1CCC(c2ccccc2)=C(C(=O)OCCc2ccc(S(C)(=O)=O)cc2)C1`, the Ratio Ki in the test filed under Homo sapiens is 4.6. The inhibition constant Ki in test [1] came out at 0.11 µM; in test [2], 0.51 µM.

For `Cc1cccc(CCOC(=O)C2=C(c3ccccc3)CCN(C)C2)c1`, the Ratio Ki in the test filed under Homo sapiens was determined as 3.1. Moreover, the inhibition constant Ki in test [1] was determined as 0.28 µM; in test [2], 0.88 µM.

As to `CCN1CCC(c2ccccc2)=C(C(=O)O[C@@H](C)Cc2ccc(OC)cc2)C1`, the Ki in test [1] and in test [2] was more than 100 µM throughout.

Consider `CN1CC=C(c2ccccc2C(=O)OCCc2ccc3c(c2)CCO3)CC1`, for which the inhibition constant Ki in test [1] and in test [2] was more than 100 µM each time.

For the compound `CCOC(=O)C1=C(c2ccccc2)CCN(CCc2ccc3c(c2)CCO3)C1`, the inhibition constant Ki in test [1] and in test [2] was more than 100 µM throughout.

Turning to `CN1CCC(c2ccccc2)=C(C(=O)OCc2ccc3c(c2)CCO3)C1`, the inhibitory constant (Ki) in test [1] and in test [2] was more than 100 µM in each case.

For `CSc1ccc(CCOC(=O)C2=C(c3ccccc3)CCN(C)C2)cc1`, in the test listed under Homo sapiens, the Ratio Ki is 1.8. The results for the Ki in test [1] and in test [2] were 0.19 µM and 0.34 µM, respectively.

Take `CN1CCC(c2ccccc2)=C(C(=O)OCCCc2ccc3c(c2)CCO3)C1`: the Ratio Ki in the test filed under Homo sapiens turned out to be 1.5. Moreover, the Ki was determined as 0.63 µM in test [1] and 0.92 µM in test [2].

Regarding `COc1ccc(CCCCOC(=O)C2=C(c3ccccc3)CCN(C)C2)cc1`, the Ratio Ki in the test listed under Homo sapiens came to 4.7. Further, the inhibition constant (Ki) was 1.16 µM in test [1] and 5.4 µM in test [2].

For `CCN1CCC(c2ccccc2)=C(C(=O)OCCc2ccc(OC)c(F)c2)C1`, the Ratio Ki in the test listed under Homo sapiens amounted to 4.8. The inhibition constant Ki in test [1] was 2.46 µM; in test [2], 11.7 µM.

Turning to `CCOC(=O)C1=C(c2ccccc2)CCN(CCc2ccc(OC)cc2)C1`, the inhibition constant (Ki) in test [1] and in test [2] was more than 100 µM each time.

Regarding `CCN1CCC(c2ccccc2)=C(C(=O)OCCc2cc(OC)c(OC)c(OC)c2)C1`, the Ki in test [1] and in test [2] was more than 100 µM in each case.

As for `COc1ccc(OCCOC(=O)C2=C(c3ccccc3)CCN(C)C2)cc1`, the Ratio Ki in the test filed under Homo sapiens is 2. For the same compound, the inhibition constant Ki in test [1] is 3.07 µM; in test [2], 6.19 µM.

For `CCCCN1CCC(c2ccccc2)=C(C(=O)OCCc2ccc(OC)cc2)C1`, the inhibition constant (Ki) in test [1] and in test [2] was more than 100 µM throughout.

Regarding `CCOC(=O)C1=C(c2ccccc2)CCN(CCc2ccc3c(c2)OCO3)C1`, the inhibition constant (Ki) in test [1] and in test [2] was more than 100 µM in each case.

For `COc1ccc(CCOC(=O)C2=C(c3ccccc3)CN(C)CC2)cc1OC`, the results for the Ki in test [1] and in test [2] were 2.62 µM and 6.16 µM, respectively.

For the compound `CCOC(=O)C1=C(c2ccccc2)CCN(C2CCN(C(=O)c3c(C)cccc3C)CC2)C1`, the inhibition constant (Ki) in test [1] and in test [2] was more than 100 µM each time.

As for `CN1CCC(c2cccc(F)c2)=C(C(=O)OCCc2ccc3c(c2)CCO3)C1`, the Ki in test [1] and in test [2] was more than 100 µM throughout.

On to `CCN1CCC(c2ccccc2)=C(C(=O)OCCc2ccc3c(c2)OCO3)C1`, for which, in the test filed under Homo sapiens, the Ratio Ki was determined as 0.7. The Ki was 0.28 µM in test [1] and 0.2 µM in test [2].

As for `COc1ccc(CCOC(=O)C2=C(c3ccccc3)CCN(C)C2)cc1`, in the test filed under Homo sapiens, the Ratio Ki is 0.7. Also, the inhibition constant (Ki) in test [1] stood at 0.03 µM; in test [2], 0.02 µM.

Turning to `CCOC(=O)C1=C(c2ccccc2)CCN(CCc2ccccc2)C1`, the inhibition constant (Ki) in test [1] and in test [2] was more than 100 µM in each case.

As to `CCN1CCC(c2ccccc2)=C(C(=O)OCc2ccc3c(c2)OCO3)C1`, the Ratio Ki in the test listed under Homo sapiens turned out to be 0.5. The inhibition constant Ki in test [1] was 0.12 µM; in test [2] it was 0.06 µM.

On to `CN1CCC(c2ccccc2)=C(C(=O)OCCc2cccc(F)c2)C1`, for which the Ratio Ki in the test filed under Homo sapiens was found to be 4.1. The inhibition constant (Ki) in test [1] was 0.08 µM; in test [2], 0.33 µM.

For the compound `COc1ccccc1C1=C(C(=O)OCCc2ccc3c(c2)CCO3)CN(C)CC1`, the Ratio Ki in the test listed under Homo sapiens was 3.5. The inhibition constant Ki stood at 2.41 µM in test [1] and 8.35 µM in test [2].

Take `CCCCN1CCC(c2ccccc2)=C(C(=O)OCCc2ccc3c(c2)CCO3)C1`: the Ki in test [1] and in test [2] was more than 100 µM throughout.

`CCOC(=O)C1=C(c2ccccc2)CCN(C2CCN(C(=O)c3c(Cl)cccc3Cl)CC2)C1`: the Ki in test [1] and in test [2] was more than 100 µM each time.

In the case of `COc1cccc(C2=C(C(=O)OCCc3ccc(OC)c(OC)c3)CN(C)CC2)c1`, the inhibition constant Ki in test [1] and in test [2] was more than 100 µM each time.

`COc1cccc(C2=C(C(=O)OCCc3ccc4c(c3)CCO4)CN(C)CC2)c1`: in the test filed under Homo sapiens, the Ratio Ki amounted to 0.9. Also, the Ki in test [1] was found to be 2.68 µM; in test [2], 2.43 µM.
